Laboratory results reported in PMC2776038 (Molecular cell, 2009).

Tested on: XPD (Rad3) helicase
Assay: single-molecule TIRF, Cy3 quenching by FeS cluster
Assay type: biochemical, Ferroplasma acidarmanus
Settings: 3'-Cy3 ssDNA, 600 pM XPD, no RPA; 50 mM Tris-HCl pH 7.5, 3 mM MgCl2, 25 °C

Km: 2.8 ± 1 µM
SMILES: Nc1ncnc2c1ncn2[C@@H]1O[C@H](COP(=O)(O)OP(=O)(O)OP(=O)(O)O)[C@@H](O)[C@H]1O [ATP]
